Experimental data: patent publication US20160009693A1, “HERBICIDAL COMPOUNDS” (SYNGENTA LIMITED, priority 2013, published 2016)

Legend:
Format in all cases: in vivo
Settings in all cases: applied at 1000 g/h, evaluated after 13 days
[1] = system: Alopecurus myosuroides (ALOMY); assay: Herbicidal glasshouse test, pre-emergence, ALOMY
Description: (§1) Seeds of a variety of test species are sown in standard soil in pots (Alopecurus myosuroides (ALOMY), Setaria faberi (SETFA), Echinochloa crus-galli (ECHCG), Solanum nigrum (SOLNI), Amaranthus retoflexus (AMARE), Ipomoea hederacea (IPOHE)). After cultivation for one day (pre-emergence) or after 8 days cultivation (post-emergence) under controlled conditions in a glasshouse (at 24/16° C., day/night; 14 hours light; 65% humidity), the plants are sprayed with an aqueous spray solution derived from the formulation of the technical active ingredient in acetone / water (50:50) solution containing 0.5% Tween 20 (polyoxyethelyene sorbitan monolaurate, CAS RN 9005-64-5). […] The test plants are then grown in a glasshouse under controlled conditions in a glasshouse (at 24/16° C., day/night; 14 hours light; 65% humidity) and watered twice daily. After 13 days for pre and post-emergence, the test is evaluated for the percentage damage caused to the plant. The biological activities are shown in the following table on a five point scale (5=80-100%; 4=60-79%; 3=40-59%; 2=20-39%; 1=0-19%).

Setaria faberi (SETFA) [2] = assay: Herbicidal glasshouse test, pre-emergence, SETFA
Description: as §1

[3] = system: Echinochloa crus-galli (ECHCG); assay: Herbicidal glasshouse test, pre-emergence, ECHCG
Description: as §1

Solanum nigrum (SOLNI) [4] = assay: Herbicidal glasshouse test, pre-emergence, SOLNI
Description: as §1

[5] = system: Amaranthus retoflexus (AMARE); assay: Herbicidal glasshouse test, pre-emergence, AMARE
Description: as §1

[6] = system: Ipomoea hederacea (IPOHE); assay: Herbicidal glasshouse test, pre-emergence, IPOHE
Description: as §1

[7] = system: Alopecurus myosuroides (ALOMY); assay: Herbicidal glasshouse test, post-emergence, ALOMY
Description: as §1

Setaria faberi (SETFA) [8] = assay: Herbicidal glasshouse test, post-emergence, SETFA
Description: as §1

[9] = system: Echinochloa crus-galli (ECHCG); assay: Herbicidal glasshouse test, post-emergence, ECHCG
Description: as §1

Solanum nigrum (SOLNI) [10] = assay: Herbicidal glasshouse test, post-emergence, SOLNI
Description: as §1

[11] = system: Amaranthus retoflexus (AMARE); assay: Herbicidal glasshouse test, post-emergence, AMARE
Description: as §1

[12] = system: Ipomoea hederacea (IPOHE); assay: Herbicidal glasshouse test, post-emergence, IPOHE
Description: as §1

Row | SMILES | PRE Application ALOMY, percentage damage (five point scale) [1] | PRE Application SETFA, percentage damage (five point scale) (Setaria faberi (SETFA) [2]) | PRE Application ECHCG, percentage damage (five point scale) [3] | PRE Application SOLNI, percentage damage (five point scale) (Solanum nigrum (SOLNI) [4]) | PRE Application AMARE, percentage damage (five point scale) [5] | PRE Application IPOHE, percentage damage (five point scale) [6] | POST Application ALOMY, percentage damage (five point scale) [7] | POST Application SETFA, percentage damage (five point scale) (Setaria faberi (SETFA) [8]) | POST Application ECHCG, percentage damage (five point scale) [9] | POST Application SOLNI, percentage damage (five point scale) (Solanum nigrum (SOLNI) [10]) | POST Application AMARE, percentage damage (five point scale) [11] | POST Application IPOHE, percentage damage (five point scale) [12]
1 | Cn1nnnc1NC(=O)c1nn(C)c(=O)n(-c2cccc(Cl)c2)c1=O [Compound 1.019] | 5 (5=80-100%) | 5 (5=80-100%) | 5 (5=80-100%) | 5 (5=80-100%) | 5 (5=80-100%) | 5 (5=80-100%) | 5 (5=80-100%) | 5 (5=80-100%) | 5 (5=80-100%) | 5 (5=80-100%) | 5 (5=80-100%) | 5 (5=80-100%)
2 | Cn1nnnc1NC(=O)c1nn(C)c(=O)n(-c2ccccc2F)c1=O [Compound 1.020] | 5 (5=80-100%) | 5 (5=80-100%) | 5 (5=80-100%) | 5 (5=80-100%) | 5 (5=80-100%) | 5 (5=80-100%) | 5 (5=80-100%) | 5 (5=80-100%) | 5 (5=80-100%) | 5 (5=80-100%) | 5 (5=80-100%) | 5 (5=80-100%)
3 | Cn1nnnc1NC(=O)c1nn(C)c(=O)n(-c2ccc(F)cc2Cl)c1=O [Compound 1.021] | 5 (5=80-100%) | 5 (5=80-100%) | 5 (5=80-100%) | 5 (5=80-100%) | 5 (5=80-100%) | 5 (5=80-100%) | 5 (5=80-100%) | 5 (5=80-100%) | 5 (5=80-100%) | 5 (5=80-100%) | 5 (5=80-100%) | 5 (5=80-100%)
4 | Cn1nnnc1NC(=O)c1nn(C)c(=O)n(Cc2ccccc2)c1=O [Compound 1.022] | 5 (5=80-100%) | 3 (3=40-59%) | 5 (5=80-100%) | 5 (5=80-100%) | 5 (5=80-100%) | 4 (4=60-79%) | 4 (4=60-79%) | 4 (4=60-79%) | 5 (5=80-100%) | 5 (5=80-100%) | 5 (5=80-100%) | 5 (5=80-100%)
5 | COCCOc1ccc(-n2c(=O)c(C(=O)Nc3nnnn3C)nn(C)c2=O)cc1 [Compound 1.023] | 5 (5=80-100%) | 5 (5=80-100%) | 5 (5=80-100%) | 5 (5=80-100%) | 5 (5=80-100%) | 5 (5=80-100%) | 5 (5=80-100%) | 5 (5=80-100%) | 5 (5=80-100%) | 5 (5=80-100%) | 5 (5=80-100%) | 5 (5=80-100%)
6 | Cn1nnnc1NC(=O)c1nn(C)c(=O)n(-c2ccc(Cl)cc2)c1=O [Compound 1.024] | 5 (5=80-100%) | 5 (5=80-100%) | 5 (5=80-100%) | 5 (5=80-100%) | 5 (5=80-100%) | 5 (5=80-100%) | 5 (5=80-100%) | 5 (5=80-100%) | 5 (5=80-100%) | 5 (5=80-100%) | 5 (5=80-100%) | 5 (5=80-100%)
7 | Cc1cccc(-n2c(=O)c(C(=O)Nc3nnnn3C)nn(C)c2=O)c1 [Compound 1.025] | 5 (5=80-100%) | 5 (5=80-100%) | 5 (5=80-100%) | 5 (5=80-100%) | 5 (5=80-100%) | 5 (5=80-100%) | 5 (5=80-100%) | 5 (5=80-100%) | 5 (5=80-100%) | 5 (5=80-100%) | 5 (5=80-100%) | 5 (5=80-100%)
8 | Cc1ccc(-n2c(=O)c(C(=O)Nc3nnnn3C)nn(C)c2=O)cc1C [Compound 1.026] | 5 (5=80-100%) | 5 (5=80-100%) | 5 (5=80-100%) | 5 (5=80-100%) | 5 (5=80-100%) | 5 (5=80-100%) | 5 (5=80-100%) | 5 (5=80-100%) | 5 (5=80-100%) | 5 (5=80-100%) | 5 (5=80-100%) | 5 (5=80-100%)
9 | Cn1nnnc1NC(=O)c1nn(C)c(=O)n(-c2ccc(Br)cc2)c1=O [Compound 1.027] | 5 (5=80-100%) | 5 (5=80-100%) | 5 (5=80-100%) | 5 (5=80-100%) | 5 (5=80-100%) | 5 (5=80-100%) | 5 (5=80-100%) | 5 (5=80-100%) | 5 (5=80-100%) | 5 (5=80-100%) | 5 (5=80-100%) | 5 (5=80-100%)
10 | Cn1nnnc1NC(=O)c1nn(C)c(=O)n(-c2cccc(C(F)(F)F)c2)c1=O [Compound 1.028] | 5 (5=80-100%) | 5 (5=80-100%) | 5 (5=80-100%) | 5 (5=80-100%) | 5 (5=80-100%) | 5 (5=80-100%) | 5 (5=80-100%) | 5 (5=80-100%) | 5 (5=80-100%) | 5 (5=80-100%) | 5 (5=80-100%) | 5 (5=80-100%)
